Measurements as given in US20240408086A1, “USE OF LUVADAXISTAT FOR THE TREATMENT OF COGNITIVE IMPAIRMENT” (TAKEDA PHARMACEUTICAL COMPANY LIMITED, priority 2021, published 2024).

Tests used:
[1] = test system: patients with schizophrenia; assay: Phase 1b crossover study: mismatch negativity (MMN) amplitude; assay type: in vivo, human
Text: (§1) NCT03359785 was a randomized, double-blind, placebo-controlled cross-over Phase 1b clinical trial in schizophrenia patients at a single site to evaluate PD effects, safety, tolerability, and pharmacokinetics of multiple oral doses of Compound (I). The objective of the study was to assess pharmacodynamic (PD) biomarkers of Compound (I) on measures related to cerebellar circuitry function and NMDA pharmacology that are known to be affected in schizophrenia.
Evoked potentials in the electroencephalogram were also tested to assess the impact of multiple oral doses of Compound (I) on NMDA-sensitive physiological responses that are affected in schizophrenia. Specifically, mismatch negativity (MMN), auditory steady state response (ASSR), and P300 were measured at baseline and following 8 days of treatment in both periods.
MMN is an oddball event-related potential sensitive to NMDA-receptor pharmacology. MMN is an event related potential (ERP) evoked in response to unattended changes in background stimulation and is responsive to D-serine elevations. There is evidence of D-serine administration improving MMN in patients with schizophrenia. MMN reflects an automatic process of detecting a mismatch between a deviant stimulus and a sensory-memory trace (FIGS. 11A, 11B). Smaller amplitudes of MMN have been consistently identified in schizophrenia participants, with a large effect size compared with healthy controls. In this study, MMN amplitude was measured at Midline frontal electrode (Fz) of electroencephalogram [EEG].
All endpoints were analyzed as change from baseline compared to placebo within the same subjects. Statistical comparisons were conducted with an ANOVA model, with treatment sequence, period, and treatment as fixed effects, and subject as a random effect. As a supplementary analysis, an analysis of covariance model (ANCOVA) was applied to the primary endpoint with (period) baseline as a covariate, treatment sequence, period, treatment effect and baseline-by-treatment as fixed effects, and subject as a random effect.

[2] = test system: patients with schizophrenia; assay: Phase 1b crossover study: safety and tolerability; assay type: in vivo, human; details: 50 or 500 mg for 8 consecutive days
Text: as §1
Safety objectives included the incidence of treatment-emergent adverse events (TEAEs), laboratory tests, vital signs, and electrocardiogram (ECG) assessments.

SMILES: O=c1[nH]nc(CCc2ccc(C(F)(F)F)cc2)cc1O [Compound (I), luvadaxistat]
- MMN amplitude, effect size vs placebo ([1]; 50 mg for 8 days): −0.691
- MMN amplitude, LS means change from baseline ([1]; 50 mg for 8 days, placebo 0.669, p=0.0497): −0.239
- MMN amplitude, effect size vs placebo ([1]; 500 mg for 8 days): 0.389
- MMN amplitude, LS means change from baseline ([1]; 500 mg for 8 days, placebo −0.154, p=0.8517): 0.594
- Deaths, serious adverse events, TEAEs leading to discontinuation of study drug [2]: no deaths, serious adverse events (AEs), or TEAEs leading to discontinuation of study drug
- Tolerability in the Phase 1b study [2]: generally well tolerated
